In patent US20080214669A1, “Composition and Method For Treating Hyperpigmented Skin” (LIPO CHEMICALS INC., priority 2005, published 2008):

Assays:
[1] = clinical study of skin brightening efficacy and skin redness (chromameter readings); type: in vivo, human; details: emulsion 0.3% by weight
Experimental: The skin brightening efficacy of p-HCA in ethoxydyglycol versus kojic acid also was tested in a clinical study. In this study, an emulsion containing 0.3%, by weight, p-HCA or kojic acid was used on twenty, mostly female, subjects between the ages of 30 to 50 years. The test composition was applied to the abdomen twice daily (a.m. and p.m.). The test was conducted for eight weeks, and chromameter readings were taken at baseline, and after 2, 4, 6, and 8 weeks.

[2] = test system: skin enzymes; assay: metabolism of p-HCA in homogenized human skin; type: in vitro ADME; details: human skin homogenate in PBS-ethanol, 37° C., eight hours of incubation
Experimental: First, to confirm in vivo activity of p-HCA, the metabolism of p-HCA in the skin was determined. In this test, human skin was homogenized in a PBS (phosphate-buffered saline)-ethanol solution, followed by dissolution of p-HCA. The solution was incubated at 37° C. for 8 hours. Samples were taken after 0, 4, and 8 hours, and were centrifuged. The supernatant was filtered and analyzed by HPLC. […] The amount of p-HCA that is metabolized was considered insignificant with respect to an efficacious treatment of hyperpigmentation.

[3] = skin penetration, Franz diffusion cells; type: in vitro ADME, human
Experimental: In another experiment, a 10% solution of p-HCA in ethoxydiglycol first was prepared. This solution was added to a skin care emulsion in a sufficient amount to provide either 0.3% or 0.1%, by weight, of p-HCA in the final composition. As a comparative example, 0.3%, by weight, of solid p-HCA was added to the same skin care emulsion. The skin care emulsion to which solid p-HCA or the p-HCA solution was added had the following formula (w/w %): • 85.35 water • 0.2 methylparaben • 0.35 xanthan gum • 5.0 butylene glycol • 4.0 sesame oil • 2.5 glyceryl stearate
The skin care emulsions containing p-HCA were applied to cadaver skin. Skin penetration of p-HCA was studied using Franz diffusion cells, n=5 (Permegear, Bethlehem, Pa.). The receptor contained an isotonic phosphate buffer with 30% ethanol, and was stirred continuously at 600 rpm. Samples of dermatomed human cadaver skin (NDRA, Philadelphia) were placed on the cells and prehydrated for 1 hour prior to the experiment. One milliliter of each formulation was added to the donor compartment of each cell, which was covered tightly with PARAFILM®. Samples (300 μl) were withdrawn from the receptor compartment every hour over 8 hours, and replaced with 300 μl of fresh receptor solution. After 8 hours, the skin was removed and cut into small pieces. The skin pieces were homogenized using a Kinematica POLYTRON® homogenizer and centrifuged. The supernatant was filtered through 0.22μ filters, and the p-HCA content was quantified.
All samples were analyzed by HPLC on a Hypersil ODS C18 column using water, methanol, glacial acetic acid (55:45:1) as the mobile phase at a flow rate of 1 ml/min and detection at 270 nm. Lag time and flux were obtained from permeation profiles and skin drug content also was recorded.
The following formula was tested for skin penetration: • Water 28.1% (by wt); • Carbopol 981 (2%) 17.0%; • Ethanol SDA 40b-190 53.0%; • Glycerin 1.0%; • Triethanolamine 0.4%; • p-Hydroxycinnamic acid 0.5%.
The method used to determine skin permeability was the Franz diffusion method disclosed above. […] In particular, 3.9 mcg/ml of p-HCA was found in the receptor compartment of the skin (i.e., permeated through the skin) as opposed to 16.3 mcg/ml p-HCA found within the skin.

[4] = solubility of p-HCA in solvents / hydroxy-containing compounds (HPLC); type: physicochemical
Experimental: Various solvents were tested for an ability to dissolve p-HCA and provide a suitable composition for topical application to efficaciously treat hyperpigmentation. p-HCA was added to various solvents, then sonicated for two hours at 35° C. until no further HCA was dissolved. The samples were cooled to room temperature (25° C.) and allowed to stabilize for 15 hours. The undissolved p-HCA was allowed to settle, the supernatant liquid was filtered, and diluted with the HPLC mobile phase for assay. All samples were analyzed by HPLC on a Hypersil ODS C18 column using water, methanol, glacial acetic acid (55:45:1) as the mobile phase. The flow rate was 1 ml/min and the wavelength for detection was 270 nm. […] p-Hydroxycinnamic acid was added to the hydroxy-containing compound and sonicated until no further p-HCA dissolved after two hours of sonication at 35° C. The test sample was cooled to room temperature, then stabilized for 15 hours. After the p-HCA was allowed to settle, the supernatant was filtered through a 0.2 micron syringe filter. Approximately 0.08 g of this filtered material was weighed into a 25 ml volumetric flask and diluted to volume with HPLC mobile phase. Two standards were analyzed by HPLC and compared to the two samples. The HPLC assay was identical to the HPLC assay discussed above.

[5] = hydroethanolic Carbopol gel formula with 0.5% p-hydroxycinnamic acid
[6] = in presence of ethoxydiglycol vs powder form

Row | SMILES | skin redness ([1]; throughout the eight-week clinical trial) | skin redness ([1]; weeks 4 and 8) | p-HCA metabolized [2] | amount deposited in the skin relative to amount transmitted through the skin [3, 5] | p-HCA found in the receptor compartment (permeated through the skin) [3, 5] | elevation of percent p-HCA that permeates cadaver skin [3, 6] | elevation of percentage of p-HCA that remained within the skin [3, 6] | solubility ([4]; 30% hydroethanolic solution) | solubility ([4]; Ethanol) | solubility ([4]; PEG-8) | solubility ([4]; butylene glycol) | solubility ([4]; glycereth-26) | solubility ([4]; pentylene glycol) | solubility ([4]; silicone fluid DC 193)
1 | O=c1cc(CO)occ1O [kojic acid] | did not reduce redness | induced redness | – | – | – | – | – | – | – | – | – | – | – | –
2 | O=C(O)C=Cc1ccc(O)cc1 [p-HCA, p-hydroxycinnamic acid] | – | – | 3.6% | four times greater | 3.9 µg/mL | 43% | about 50% | 0.75 wt % | 14.8 wt % | 5.4 wt % | 2.25 wt % | 7 wt % | 1.75 wt % | 4.7 wt %
